Measured values from PMC6009888, “Design, synthesis, and pharmacological evaluation of 2-amino-5-nitrothiazole derived semicarbazones as dual inhibitors of monoamine oxidase and cholinesterase: effect of the size of aryl binding site” (Journal of Enzyme Inhibition and Medicinal Chemistry, 2017).

Molecular target: T1, MAO-A (Rattus norvegicus, UniProt P21396)
T1 construct: employing crude rat brain mitochondrial suspension; from tissue; host or cells: brain mitochondria of adult Wistar rats
T1 sequence (P21396 1-526): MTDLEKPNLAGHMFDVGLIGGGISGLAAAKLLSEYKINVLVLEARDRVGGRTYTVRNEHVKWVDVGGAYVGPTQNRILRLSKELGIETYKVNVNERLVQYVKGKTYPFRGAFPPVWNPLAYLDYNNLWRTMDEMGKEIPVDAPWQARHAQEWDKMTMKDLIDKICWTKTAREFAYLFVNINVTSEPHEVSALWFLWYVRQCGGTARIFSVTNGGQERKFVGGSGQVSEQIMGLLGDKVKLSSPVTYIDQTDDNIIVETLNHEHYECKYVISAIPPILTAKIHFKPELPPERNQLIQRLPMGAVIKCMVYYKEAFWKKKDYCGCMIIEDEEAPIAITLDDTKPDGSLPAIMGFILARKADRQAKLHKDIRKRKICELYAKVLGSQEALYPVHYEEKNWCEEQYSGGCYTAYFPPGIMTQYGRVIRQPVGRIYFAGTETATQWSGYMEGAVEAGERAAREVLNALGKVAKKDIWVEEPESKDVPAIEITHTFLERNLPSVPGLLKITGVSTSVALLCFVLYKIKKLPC
Assay: In vitro MAO-A inhibition assay (rat brain mitochondria, serotonin substrate)
Assay type: biochemical
Conditions: MAO-A In vitro IC50 (µM) ± SEM, rat brain mitochondria, serotonin substrate, mean ± SEM, triplicate
Experimental: (§1) Rat brain mitochondria were used as a source of MAO isoforms. All operations were carried out at 4 °C[50]. Male and female adult Wistar rats weighing 200–220 g were decapitated. All brains were rapidly removed and homogenised with a Potter–Elvehjem homogeniser in cold 0.32 M sucrose and 50 mM Tris-HCl, pH 8.2 (10:1, v/w). The homogenate was centrifuged twice at 1000 g for 5 min at 4 °C. The resulting supernatant was centrifuged at 20,000 g for 20 min. The mitochondrial pellet obtained was suspended in 100 mM sodium phosphate buffer, pH 7.4 (4:1, v/w), fractionated in plastic vials to 500 µl samples and stored at −80 °C. Before use, mitochondria were diluted with 100 mM sodium phosphate buffer to give a working solution of 0.80 mg of protein per millilitre.
(§2) The experiments were carried out under all the suitable laboratory conditions. […] An aliquot was made to contain mixture of 55 µl mitochondrial suspension (0.80 mg of protein/ml), 90 µl 50 mM Tris-HCl buffer, pH 8.2 and 30 µl solubilising solution (control or inhibitor solution at five different concentrations). The reaction was initiated by adding 25 µl of serotonin (4 mM, substrate for MAO-A) and 25 µl benzylamine (0.1 M, substrate for MAO-B) for the determination of MAO-A and MAO-B activity, respectively. The mixture was incubated at 37 °C for 30 min and the reaction was stopped by the addition of 50 µl of 1 N HCl. The absorbance associated with the production of 5-hydroxyindolacetic acid was measured at 280 nm for the estimation of MAO-A while for MAO-B estimation, the absorbance was measured at 250 nm due to the formation of benzaldehyde. All the assays were performed in triplicate. Control experiments were carried out without inhibitor and blanks were run without mitochondrial suspension.
(§3) Data are expressed as mean ± standard error mean (SEM) of experiments performed in triplicate.
(§4) 0, 15, 30 and 60 min at 37 °C in Tris-HCl buffer (50 mM, pH 8.2). […] The reactions were further incubated at 37 °C for a further 15 min and the residual enzyme activities were measured and the bar graphs were constructed. All measurements were carried out in triplicate and are expressed as mean ± SEM.

Question: For `CC(=NNC(=O)Nc1ncc([N+](=O)[O-])s1)c1ccc([N+](=O)[O-])cc1` [Compound 8, 1-(1-(4-Nitrophenyl)ethylidene)-4-(5-nitrothiazol-2-yl)semicarbazide], which IC50 is on record?
Answer: The IC50 was 2743 ± 3.65 µM.

Same assay, conditions: rat brain mitochondria, serotonin substrate, mean ± SEM, triplicate; read-out: MAO-A In vitro IC50 (µM) ± SEM

Question: For `O=C(NN=C(CBr)c1ccc(Br)cc1)Nc1ncc([N+](=O)[O-])s1` [Compound 9, 1-(2-Bromo-1-(4-bromophenyl)ethylidene)-4-(5-nitrothiazol-2-yl)semicarbazide], which IC50 is on record?
Answer: Its IC50 is 314 ± 1.89 µM.

Test system: mice
Assay: Neurotoxicity screening (rotarod test)
Assay type: in vivo
Conditions: 30 mg/kg i.p., 0.5 h
Experimental: The neurotoxicity screening was undertaken according to the method followed by the National Institute of Health, using their reported procedures[55]^,[56]. Male albino mice (CF-1 strain or Swiss, 18–25 g) were used as experimental animals. The animals were housed in metabolic cages, and allowed free access to food and water. The test compounds were suspended in 0.5% methylcellulose/water mixture or in polyethylene glycol (PEG 200).
Minimal motor impairment was measured in mice by the rotarod test. The mice were trained to stay on an accelerating rotarod that rotates at six revolutions per minute. The rod diameter was 3.2 cm. Trained animals were given i.p. injection of the selected inhibitors at a dose of 30 mg/kg. Neurotoxicity was indicated by the inability of the animal to maintain equilibrium on the rod for at least 1 min in each of the three trials.

Question: For `O=C(NN=C(CBr)c1ccc(Br)cc1)Nc1ncc([N+](=O)[O-])s1` [Compound 9, 1-(2-Bromo-1-(4-bromophenyl)ethylidene)-4-(5-nitrothiazol-2-yl)semicarbazide], which “Neurotoxicity (animals that exhibit toxicity / animals tested)” value is on record?
Answer: Its value is 2/4.

Same assay, conditions: 30 mg/kg i.p., 1 h

Question: With `O=C(NN=C(CBr)c1ccc(Br)cc1)Nc1ncc([N+](=O)[O-])s1` [Compound 9, 1-(2-Bromo-1-(4-bromophenyl)ethylidene)-4-(5-nitrothiazol-2-yl)semicarbazide] as the compound, how does the “Neurotoxicity (animals that exhibit toxicity / animals tested)” value read?
Answer: The value was 1/4.

Same assay, conditions: 30 mg/kg i.p., 2 h

Question: With `O=C(NN=C(CBr)c1ccc(Br)cc1)Nc1ncc([N+](=O)[O-])s1` [Compound 9, 1-(2-Bromo-1-(4-bromophenyl)ethylidene)-4-(5-nitrothiazol-2-yl)semicarbazide] as the compound, how does the “Neurotoxicity (animals that exhibit toxicity / animals tested)” value read?
Answer: Its value is 0/4.

Same assay, conditions: 30 mg/kg i.p., 4 h

Question: For `O=C(NN=C(CBr)c1ccc(Br)cc1)Nc1ncc([N+](=O)[O-])s1` [Compound 9, 1-(2-Bromo-1-(4-bromophenyl)ethylidene)-4-(5-nitrothiazol-2-yl)semicarbazide], which “Neurotoxicity (animals that exhibit toxicity / animals tested)” value is on record?
Answer: Its value is 0/4.

Same assay, conditions: 30 mg/kg, relative to phenytoin

Question: For `O=C(NN=C(CBr)c1ccc(Br)cc1)Nc1ncc([N+](=O)[O-])s1` [Compound 9, 1-(2-Bromo-1-(4-bromophenyl)ethylidene)-4-(5-nitrothiazol-2-yl)semicarbazide], which “Neurotoxicity (verdict in words)” value is on record?
Answer: The value was “moderately neurotoxic”.

Test system: not listed separately
Assay: In vitro DPPH radical scavenging assay
Conditions: test sample 100 µg/ml, 100 µM methanolic DPPH, 30 min, 517 nm
Experimental: Antioxidant activity of the synthesised compounds (10 mg/ml) was evaluated using the radical scavenging capability against the stable free radical, 2,2′-diphenyl-1-picryl hydrazyl (DPPH·). The DPPH· scavenging capability was determined using UV based spectrophotometric assay. About 200 µl of the test sample solution (100 µg/ml) was added to 4 ml of 100 µM methanolic DPPH. […] Ascorbic acid (100 µg/ml) was used as reference. The percentage inhibition of DPPH activity was estimated using the formula: Percent (%) inhibition of DPPH activity = Acontrol-Asample/Acontrol×100 where Acontrol is the absorbance of DPPH· in methanol without an antioxidant and Asample is the absorbance of DPPH· in the presence of an antioxidant.

Question: Which “% inhibition of DPPH activity” value does the source give for `O=C(NN=C(CBr)c1ccc(Br)cc1)Nc1ncc([N+](=O)[O-])s1` [Compound 9, 1-(2-Bromo-1-(4-bromophenyl)ethylidene)-4-(5-nitrothiazol-2-yl)semicarbazide] here?
Answer: The value was 35.89%.

Question: With `CC(=NNC(=O)Nc1ncc([N+](=O)[O-])s1)c1ccc([N+](=O)[O-])cc1` [Compound 8, 1-(1-(4-Nitrophenyl)ethylidene)-4-(5-nitrothiazol-2-yl)semicarbazide] as the compound, how does the “% inhibition of DPPH activity” value read?
Answer: Its value is 11.60%.

Molecular target: T2, rat brain AChE (Rattus norvegicus, UniProt P37136)
T2 construct: the resulting clear supernatants obtained were used as enzyme sources; from tissue; host or cells: rat brain cortex homogenate, 10,000 g supernatant
Assay: biochemical
Assay type: biochemical
Conditions: AChE In vitro IC50 (µM) ± SEM, rat brain AChE, ACTI substrate, mean ± SEM, triplicate
Experimental: Rat brain was used as a source of AChE enzyme. Rats were separately decapitated, the brain cortices quickly removed, weighed and homogenised in cold 10 mM Tris-HCl buffer, pH 7.2, containing 160 mM sucrose. The homogenates were centrifuged at 10,000 g for 10 min at 4 °C, and the resulting clear supernatants obtained were used as enzyme sources that were divided into aliquots and stored at −20 °C.
About 30 µl of enzyme sample (AChE) was added to 60 µl of 20 mM sodium phosphate buffer (pH 7.4) and were incubated in the presence of 30 µl of 10 mM DTNB solution with different concentrations of the test compounds. The enzyme reaction was initiated by the addition of 30 µl of 0.8 mM ACTI. The mixtures were incubated for 15 min at 25 °C. […] Control experiments were carried out without inhibitor, and blanks were run without AChE enzyme. All the assays were performed in triplicate. IC50 values were determined using the GraphPad Prism 5.0 (San Diego, CA) and the results were expressed as mean ± SEM.
as §4, with “25” for “37”, “sodium phosphate” for “Tris-HCl”, “(20” for “(50”, “7.4) and DTNB solution (10 mM).” for “8.2).”, “reaction was” for “reactions were”

T2 sequence (P37136 32-614): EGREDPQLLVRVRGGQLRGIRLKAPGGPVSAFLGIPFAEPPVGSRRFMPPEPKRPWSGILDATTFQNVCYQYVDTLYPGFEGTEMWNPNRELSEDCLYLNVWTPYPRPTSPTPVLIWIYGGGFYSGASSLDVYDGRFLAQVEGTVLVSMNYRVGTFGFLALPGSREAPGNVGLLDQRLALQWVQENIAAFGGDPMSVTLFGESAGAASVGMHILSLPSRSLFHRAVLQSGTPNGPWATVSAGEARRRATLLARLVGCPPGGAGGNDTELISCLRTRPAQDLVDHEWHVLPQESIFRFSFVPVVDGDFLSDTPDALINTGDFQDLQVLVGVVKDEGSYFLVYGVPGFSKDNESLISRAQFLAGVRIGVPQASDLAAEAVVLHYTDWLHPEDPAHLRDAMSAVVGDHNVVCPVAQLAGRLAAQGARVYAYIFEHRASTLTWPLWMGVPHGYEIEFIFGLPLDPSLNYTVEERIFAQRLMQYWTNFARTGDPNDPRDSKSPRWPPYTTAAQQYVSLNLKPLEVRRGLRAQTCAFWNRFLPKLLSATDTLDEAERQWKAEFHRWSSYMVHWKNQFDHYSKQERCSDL

Question: With `CC(=NNC(=O)Nc1ncc([N+](=O)[O-])s1)c1ccc([N+](=O)[O-])cc1` [Compound 8, 1-(1-(4-Nitrophenyl)ethylidene)-4-(5-nitrothiazol-2-yl)semicarbazide] as the compound, how does the IC50 read?
Answer: The IC50 was 45.5 ± 1.36 µM.

Same assay, conditions: rat brain AChE, ACTI substrate, mean ± SEM, triplicate; read-out: AChE In vitro IC50 (µM) ± SEM

Question: Which IC50 does the source give for `O=C(NN=C(CBr)c1ccc(Br)cc1)Nc1ncc([N+](=O)[O-])s1` [Compound 9, 1-(2-Bromo-1-(4-bromophenyl)ethylidene)-4-(5-nitrothiazol-2-yl)semicarbazide] here?
Answer: The IC50 was 3.926 ± 0.014 µM.

Test system: not listed separately
Assay: physchem
Conditions: not given

Question: With `CC(=NNC(=O)Nc1ncc([N+](=O)[O-])s1)c1ccc([N+](=O)[O-])cc1` [Compound 8, 1-(1-(4-Nitrophenyl)ethylidene)-4-(5-nitrothiazol-2-yl)semicarbazide] as the compound, how does the logP read?
Answer: The logP was 1.4.

Molecular target: T3, MAO-B (Rattus norvegicus, UniProt P19643)
T3 construct: employing crude rat brain mitochondrial suspension; from tissue; host or cells: brain mitochondria of adult Wistar rats
T3 sequence (P19643 1-520): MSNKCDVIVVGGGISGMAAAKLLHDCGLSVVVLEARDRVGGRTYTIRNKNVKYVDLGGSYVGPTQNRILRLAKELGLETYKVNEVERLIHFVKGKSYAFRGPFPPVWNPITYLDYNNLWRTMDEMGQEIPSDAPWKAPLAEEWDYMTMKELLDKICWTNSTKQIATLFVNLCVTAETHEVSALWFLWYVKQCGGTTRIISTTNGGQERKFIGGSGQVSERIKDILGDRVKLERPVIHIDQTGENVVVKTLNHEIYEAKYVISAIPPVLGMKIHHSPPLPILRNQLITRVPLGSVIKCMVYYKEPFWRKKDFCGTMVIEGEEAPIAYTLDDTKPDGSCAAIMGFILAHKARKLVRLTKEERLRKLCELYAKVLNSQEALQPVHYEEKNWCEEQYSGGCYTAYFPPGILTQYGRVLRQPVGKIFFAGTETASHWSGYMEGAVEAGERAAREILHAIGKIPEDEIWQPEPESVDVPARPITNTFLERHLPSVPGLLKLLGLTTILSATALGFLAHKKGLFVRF
Assay: biochemical
Conditions: not given
Experimental: as §1, §2, §3, §4

Question: Which IC50 does the source give for `O=C(NN=C(CBr)c1ccc(Br)cc1)Nc1ncc([N+](=O)[O-])s1` [Compound 9, 1-(2-Bromo-1-(4-bromophenyl)ethylidene)-4-(5-nitrothiazol-2-yl)semicarbazide] here?
Answer: Its IC50 is 0.313 ± 0.007 µM.

Question: With `CC(=NNC(=O)Nc1ncc([N+](=O)[O-])s1)c1ccc([N+](=O)[O-])cc1` [Compound 8, 1-(1-(4-Nitrophenyl)ethylidene)-4-(5-nitrothiazol-2-yl)semicarbazide] as the compound, how does the IC50 read?
Answer: Its IC50 is 23.88 ± 0.022 µM.

Same assay, conditions: ratio of experimental IC50(MAO-A)/IC50(MAO-B)

Question: For `O=C(NN=C(CBr)c1ccc(Br)cc1)Nc1ncc([N+](=O)[O-])s1` [Compound 9, 1-(2-Bromo-1-(4-bromophenyl)ethylidene)-4-(5-nitrothiazol-2-yl)semicarbazide], which “SI (selectivity index for MAO-B)” value is on record?
Answer: Its value is 1003.19.

Question: For `CC(=NNC(=O)Nc1ncc([N+](=O)[O-])s1)c1ccc([N+](=O)[O-])cc1` [Compound 8, 1-(1-(4-Nitrophenyl)ethylidene)-4-(5-nitrothiazol-2-yl)semicarbazide], which “SI (selectivity index for MAO-B)” value is on record?
Answer: The value was 114.86.
